# Measured values as given in PMC10825133, “Repurposing proteasome inhibitors for improved treatment of triple-negative breast cancer” (Cell Death Discovery, 2024).
# Where two headings read alike, the source gives them in different places. Residues, ends and D or L forms follow the SMILES beside them. *: point of attachment. Cbz = O=C(OCc1ccccc1)*
# Assays:
# [1] = tested on: control cell lines (MCF-10A and MCF-7); assay: Monotherapy drug screen, mean across the controls; type: cell-based, human; settings: for area under the dose response curve (AUC), mean ± SD: 24 h; for IC50: 24 h drug treatment, read-out: GR50 (mean ± SD)
# Description: (§1) Eighteen pharmaceutical compounds were purchased from Selleckchem (Supplementary Table 2). Stock solutions were prepared using dimethyl sulfoxide (DMSO; Merck), physiological saline (sodium chloride 0.9%) or Milli-Q water, and stored at −80 °C. […] Matched concentration solvent vehicle controls were used for each drug concentration. The drug screens were performed in triplicate and repeated three (monotherapy) or two (combination therapy) times (Fig. 7).
# (§2) The optimal seeding density per 96-well was determined for each cell line as previously described. The cells were seeded at a density of 4.0 × 10^3 to 7.5 × 10^3 (cell type dependent) in 96-well clear, flat-bottom microplates (Corning Life Sciences, Sigma-Aldrich) in 100 µl complete culture medium (Supplementary Table 1) and cultured for 24 h. Cell viability was determined using the resazurin assay in untreated cells at the time of plating (t = 0) and treated cells after 24 h drug treatment (Fig. 7). Percentage cell viability was calculated as 100% × (absorbance of treated cells – absorbance of background controls) / (absorbance of matched solvent vehicle controls – absorbance of background controls). The area under the curve (AUC), half-maximal inhibitory concentration (IC50), drug potency (GR50), and drug efficacy (GRmax) were determined for each compound using the GRmetrics (version 1.20.0) package in R. The monotherapy data were evaluated with the IDACombo (version 1.0.2) package in R to predict potential drug combinations (Table 1). SynergyFinder (version 3.2.10) package in R was used to identify synergistic drug combinations.
# (§3) Eighteen pharmaceutical compounds were purchased from Selleckchem. […] The solubility of the compound was enhanced by pre-heating the solvent (lukewarm), if necessary. […] The stock solutions were stored at -80°C. […] Matched concentration solvent vehicle controls were used for each drug concentration. The drug screens were performed in triplicate and repeated three times for the monotherapies and twice for the combination treatments. The drug(s) and corresponding controls were plated in 96-well PCR plates (VWR) and stored at -20°C (Fig. 6). The drug plates were thawed, centrifuged (3000 rpm for 30s), and acclimatized to RT before the drugs were added to the cells. New drug plates were prepared for each drug screen.
# (§4) The cells were seeded at a density of 4.0x10^3 to 7.5x10^3 (cell type-dependent) in 96-well clear, flat-bottom microplates (Corning Life Sciences, Sigma-Aldrich) in 100 µl culture medium supplemented with 10% FBS and cultured for 24h. Cell viability was determined using the resazurin assay after 24h drug treatment (Fig. 6). Percentage cell viability was calculated as 100% × (absorbance of treated cells – absorbance of background controls) / (absorbance of matched solvent vehicle controls – absorbance of background controls). Normalized growth rate inhibition (GR) was assessed using the absorbance of untreated cells after the time of plating (t = 0). […] For combination treatment, the monotherapy data were evaluated with the IDACombo (version 1.0.2)[20] package in R to predict potential drug combinations (Table 1). SynergyFinder (version 3.2.10)[21] package in R was used to identify synergistic drug combinations.
# [2] = tested on: CAL-148 cells; assay: Resazurin-based cell viability assay, monotherapy drug screen; design: species or system human; AUC: unit not given beside the values; settings: for AUC: area under the dose response curve, 24 h; for GRmax: drug efficacy at highest tested dose (<0 cytotoxic, 0 cytostatic, >0 partial growth inhibition)
# Description: as §1, §2, §3
# Cell viability was measured daily (day 0 [plating day] to day 4) using 0.2 mg/ml resazurin solution prepared from resazurin sodium salt (Fisher Scientific) dissolved in sterile 1xPBS (ThermoFisher Scientific). Before use, the resazurin solution was brought to RT before 10 µl (10% of cell medium volume) was added to each 96-well and incubated for 4h at 37°C. […] The slope of the curve was used to determine the optimal seeding density, i.e., the highest seeding density with linear growth between days 1 and 3.
# as §4
# [3] = biological target: T1, β5 catalytic site of the 20 S proteasome (Homo sapiens, UniProt P28074); assay: Proteasome activity of the β5 catalytic site in MCF-7 cells (Suc-Leu-Leu-Val-Tyr-AMC substrate); type: cell-based; settings: for inhibition at 1 µM: 1000 nM
# T1 construct: endogenous in cells; host or cells: MCF-7
# Description: Proteasome activity of the β5 catalytic site was determined for the PIs using a Suc-Leu-Leu-Val-Tyr-AMC fluorescent proteasome substrate (Enzo Life Sciences, Cat. BML-P802) at a final concentration of 20 µM. MCF-7 cells were seeded at 7.5 × 10^3 cells/well in black 96-well flat-bottom microplates (Nuclon™ Delta Surface, ThermoFisher Scientific) with 100 µl culture medium supplemented with 10% FBS. After 24 h, the cells were treated for 6 h with the 11 PIs at 1, 10, 100, and 1000 nM and matched untreated controls.
# [4] = tested on: eight TNBC cell lines and two controls (MCF-10A and MCF-7); assay: Monotherapy drug screen, all investigated cell lines; type: cell-based, human; settings: for drug potency classification, below the threshold: GR50 and AUC both below the threshold
# Description: as §1, §2, §3, §4
# [5] = tested on: CAL-148 cells; assay: Combination therapy, resazurin viability, SynergyFinder; type: cell-based, human
# Description: as §1, §2, §3, §4
# [6] = tested on: HCC38 cells; assay: as above; type: cell-based, human
# Description: as §1, §2, §3, §4
# [7] = Homo sapiens, CAL-148, growth rate inhibition concentration at GR(c) = 0.5, 24 h, read-out: GR50 (the source's name)
# [8] = MCF7, MCF-7 cells treated 6 h, 10000 nM, read-out: inhibition of β5 activity
# [9] = metrics GR50 < 1.0 µM and AUC < 0.80
# [10] = CAL-148, 24 h drug treatment, read-out: IC50
# [11] = CAL-148, growth rate inhibition concentration at GR(c) = 0.5, 24 h, read-out: GR50 (the source's name)
# [12] = Homo sapiens, CAL-148, 24 h, read-out: GR50 (µM)
# [13] = Homo sapiens, CAL-148, 24 h drug treatment, read-out: IC50
SMILES,AUC ([2]; CAL-148),GRmax ([2]; CAL-148),"IC50 [2, 7] [µM]","drug potency classification, below the threshold [4]","drug potency classification [4, 9]",further results
CC(C)C[C@H](NC(=O)[C@H](Cc1ccccc1)NC(=O)c1cnccn1)B(O)O [Bortezomib],0.77,0.17,0.12,highly potent drugs,potent drugs,"area under the dose response curve (AUC), mean ± SD [1]: 0.69 ± 0.10; IC50 ([1]; Homo sapiens): 21 ± 9.7 nM; inhibition at 1 µM ([3]; MCF7, MCF-7 cells treated 6 h): 95%; inhibition at 10 µM [3, 8]: 100%; inhibition at 0.01 µM ([5]; Homo sapiens, bortezomib 10 nM alone): 12.5%; inhibition at 0.078 µM ([5]; Homo sapiens, bortezomib 78 nM alone): 62.8%; inhibition at 0.625 µM ([5]; Homo sapiens, bortezomib 625 nM alone): 55.1%; inhibition at 5 µM ([5]; Homo sapiens, bortezomib 5000 nM alone): 55.6%"
N.N.O=C([O-])C1(C(=O)[O-])CCC1.[Pt+2] [Carboplatin],0.92,0.03,,,,"IC50 [2, 10]: 0.93 µM; IC50 [2, 11]: 0.49 µM; Inhibition (%) ([6]; carboplatin 8 µM alone): −3.64%; Inhibition (%) ([6]; carboplatin 32 µM alone): −1.55%; Inhibition (%) ([6]; carboplatin 128 µM alone): 0.55%; Inhibition (%) ([6]; carboplatin 512 µM alone): 11.55%"
CC(C)C[C@H](NC(=O)[C@H](CCc1ccccc1)NC(=O)CN1CCOCC1)C(=O)N[C@@H](Cc1ccccc1)C(=O)N[C@@H](CC(C)C)C(=O)[C@@]1(C)CO1 [Carfilzomib],0.84,−0.01,0.37,highly potent drugs,potent drugs,
CC1=C(O)C(=O)C=C2C1=CC=C1[C@@]2(C)CC[C@@]2(C)[C@@H]3C[C@](C)(C(=O)O)CC[C@]3(C)CC[C@]12C [Celastrol],0.85,−0.84,,,,"IC50 ([2]; Homo sapiens, CAL-148, 24 h): 3.7 µM; IC50 [2, 12]: 3.1 µM"
N.N.[Cl][Pt][Cl] [Cisplatin],0.48,−0.97,,,potent drugs,"area under the dose response curve (AUC), mean ± SD [1]: 0.54 ± 0.12; IC50 [2, 10]: 0.048 µM; IC50 [2, 11]: 0.032 µM"
CC(C)C[C@H](NC(=O)[C@@H](NC(=O)c1cccc(-c2ccccc2)n1)[C@@H](C)O)B(O)O [Delanzomib],0.77,0.39,0.023,highly potent drugs,potent drugs,"IC50 ([1]; Homo sapiens): 24 ± 13 nM; inhibition at 1 µM ([3]; MCF7, MCF-7 cells treated 6 h): 55%; inhibition at 10 µM [3, 8]: 100%"
CC(=O)O[C@@]12CO[C@@H]1C[C@H](O)[C@@]1(C)C(=O)[C@H](O)C3=C(C)[C@@H](OC(=O)[C@H](O)[C@@H](NC(=O)OC(C)(C)C)c4ccccc4)C[C@@](O)([C@@H](OC(=O)c4ccccc4)[C@H]21)C3(C)C [Docetaxel],0.89,0.74,,highly potent drugs,potent drugs,IC50 ([1]; Homo sapiens): 7.8 ± 1.3 nM
COc1cccc2c1C(=O)c1c(O)c3c(c(O)c1C2=O)C[C@@](O)(C(=O)CO)C[C@@H]3O[C@H]1C[C@H](N)[C@H](O)[C@H](C)O1 [Doxorubicin],0.72,0.15,0.12,,,"IC50 [2, 13]: 0.22 µM"
COc1cccc2c1C(=O)c1c(O)c3c(c(O)c1C2=O)C[C@@](O)(C(=O)CO)C[C@@H]3O[C@H]1C[C@H](N)[C@@H](O)[C@H](C)O1 [Epirubicin],0.73,0.14,0.11,,,"IC50 [2, 13]: 0.2 µM"
CC[C@H](C)[C@H](NC(=O)[C@H]([C@@H](C)CC)N(C)C(C)=O)C(=O)N[C@H](C(=O)N[C@@H](CC(C)C)C(=O)[C@@]1(C)CO1)[C@@H](C)O [Epoxomicin],0.78,0.11,,highly potent drugs,,"area under the dose response curve (AUC), mean ± SD [1]: 0.66 ± 0.080; IC50 [1]: 85 ± 10 nM; IC50 [2, 11]: 0.77 µM; drug potency classification [4]: potent drugs"
"CC(C)C[C@@H](C=O)NC(=O)[C@H](CC(C)C)NC(=O)[C@H](CC(C)C)NC(=O)OCc1ccccc1 [MG 132, MG-132] (Cbz-Leu-Leu-Leu-aldehyde)",0.89,0.22,,,,"IC50 [2, 12]: 3.4 µM; inhibition at 10 µM ([3]; MCF7, read-out: inhibition of β5 activity): 25%"
"CC(C)C[C@H](NC(=O)CNC(=O)c1cc(Cl)ccc1Cl)B(O)O [MLN 2238, MLN-2238]",0.83,0.18,0.27,highly potent drugs,potent drugs,"inhibition at 10 µM [3, 8]: 33%"
"CC(C)C[C@H](NC(=O)CNC(=O)c1cc(Cl)ccc1Cl)B1OC(=O)C(CC(=O)O)(CC(=O)O)O1 [MLN 9708, MLN-9708]",0.88,0.40,0.5,,potent drugs,"inhibition at 10 µM [3, 8]: 51%"
[NH2][Pt]1([NH2])[O]CC(=O)[O]1 [Nedaplatin],0.78,−0.93,,,potent drugs,"area under the dose response curve (AUC), mean ± SD [1]: 0.70 ± 0.13; IC50 [2, 10]: 0.32 µM; IC50 [2, 11]: 0.21 µM; Inhibition (%) ([5]; nedaplatin 8 µM alone): −9.21%; Inhibition (%) ([5]; nedaplatin 32 µM alone): 2.14%; Inhibition (%) ([5]; nedaplatin 128 µM alone): 9.01%; Inhibition (%) ([5]; nedaplatin 512 µM alone): 49.72%"
COC[C@H](NC(=O)c1cnc(C)s1)C(=O)N[C@@H](COC)C(=O)N[C@@H](Cc1ccccc1)C(=O)[C@@]1(C)CO1 [Oprozomib],0.90,0.14,1.1,,,
CC(=O)O[C@H]1C(=O)[C@@]2(C)[C@H]([C@H](OC(=O)c3ccccc3)[C@]3(O)C[C@H](OC(=O)[C@H](O)[C@@H](NC(=O)c4ccccc4)c4ccccc4)C(C)=C1C3(C)C)[C@]1(OC(C)=O)CO[C@@H]1C[C@@H]2O [Paclitaxel],0.92,0.51,1.1,,,"inhibition at 0.01 µM ([6]; Homo sapiens, paclitaxel 10 nM alone): -0.18%; inhibition at 0.078 µM ([6]; Homo sapiens, paclitaxel 78 nM alone): 10.6%; inhibition at 0.625 µM ([6]; Homo sapiens, paclitaxel 625 nM alone): 21.1%; inhibition at 5 µM ([6]; Homo sapiens, paclitaxel 5000 nM alone): 24.7%"
